Structures are written as SMILES. Values after ≈ are worked out from the molar mass of the structure shown.

The results in this text go back to ChEMBL document CHEMBL1158133, “Cytotoxic flavaglines and bisamides from Aglaia edulis” (J Nat Prod, 2006).

One data set deals with MCF7. The experiment in a line: Cytotoxicity against human MCF7 cells. It counts as functional. As to conditions: read-out: ED50 (the source's name).
The subject of another data set is LNCaP. Briefly: Cytotoxicity against human LNCAP cells. In kind it is functional. As to conditions: read-out: ED50 (the source's name).
Data set [1] in a line: Cytotoxicity against HUVEC. It counts as cell-based. As to conditions: human, HUVEC cells; read-out: ED50 (the source's name).
In another data set the test system is Lu1. Briefly: Cytotoxicity against human Lu1 cells. It counts as functional. Conditions: read-out: ED50 (the source's name).
Another data set relates to P388. The experiment in a line: In vivo antitumor activity against mouse P388 cellsleukemia model at 4.5 mg/kg, ip. It counts as functional. Conditions: route intraperitoneal.

In the case of `COc1ccc([C@]23Oc4cc5c(c(OC)c4[C@](O)([C@H](C(=O)N4CCCC4NC(=O)CC(C)C)[C@H]2c2ccccc2)[C@@H]3O)OCO5)cc1` (stereo not given in full) [EDULIRIN A], the EC50 in the data set on MCF7, with LNCaP and in the data set on Lu1 was more than 5 µg/mL in each case. Further, the CC50 in data set [1] was more than 5 µg/mL.

`COC(=O)[C@@]1(c2ccc(OC)cc2)Oc2cc3c(c(OC)c2C(=O)[C@H](C(=O)N2CCC[C@@H]2NC(=O)C=C(C)C)[C@H]1c1ccccc1)OCO3` [19,20-DEHYDROEDULISONE A]: the EC50 in the data set on MCF7, in the data set on LNCaP and in the data set on Lu1 was more than 5 µg/mL in each case. Further, the CC50 in data set [1] is more than 5 µg/mL.

As to `COc1ccc([C@@]23Oc4cc5c(c(OC)c4[C@]2(O)[C@H](O)[C@H](C(=O)N(C)C)[C@H]3c2ccccc2)OCO5)cc1` [AGLAROXIN A], the results for the EC50 in the data set with MCF7, in the data set on LNCaP and in the data set with Lu1 were 0.06 µg/mL (≈ 0.115 µM), 0.02 µg/mL (≈ 0.0385 µM) and 0.04 µg/mL (≈ 0.077 µM), respectively. Further, the CC50 in data set [1] was 0.1 µg/mL (≈ 0.192 µM).

For the molecule `COC1CCCN1C(=O)/C=C/c1ccccc1` (stereo not given) [AGLAMIDE D], the EC50 in the data set with MCF7, in the data set with LNCaP and in the data set with Lu1 was more than 5 µg/mL throughout. The CC50 in data set [1] is more than 5 µg/mL.

On to `COc1ccc([C@@]23Oc4cc5c(c(OC)c4[C@]2(O)[C@H](OC(C)=O)[C@H](C(=O)N(C)C)[C@H]3c2ccccc2)OCO5)cc1OC`, for which the EC50 in the data set on MCF7 is 0.8 µg/mL (≈ 1.35 µM); in the data set with LNCaP it was 0.3 µg/mL (≈ 0.507 µM); in the data set on Lu1, 0.5 µg/mL (≈ 0.845 µM). Moreover, the CC50 in data set [1] was 0.5 µg/mL (≈ 0.845 µM).

Take `CC(C)CC(=O)NC1CCCN1C(=O)/C=C/c1ccccc1` (stereo not given) [AGLAMIDE C]: the EC50 in the data set on MCF7, in the data set on LNCaP and with Lu1 was more than 5 µg/mL in each case. Also, the CC50 in data set [1] was more than 5 µg/mL.

As for `COc1ccc([C@]23Oc4cc5c(c(OC)c4[C@](O)([C@H](c4ccccc4)[C@H]2C(=O)N2CCCC2NC(=O)CC(C)C)[C@@H]3O)OCO5)cc1` (stereo not given in full) [EDULIRIN B], the EC50 in the data set on MCF7, with LNCaP and in the data set with Lu1 was more than 5 µg/mL throughout. Also, the CC50 in data set [1] is more than 5 µg/mL.

As to `CS/C=C/C(=O)NC1CCCN1C(=O)/C=C/c1ccccc1` (stereo not given) [AGLAMIDE A], the EC50 in the data set with MCF7, with LNCaP and in the data set with Lu1 was more than 5 µg/mL throughout. Further, the CC50 in data set [1] is more than 5 µg/mL.

On to `COc1cc2ccc(=O)oc2cc1O` [SCOPOLETIN], for which the EC50 in the data set with MCF7, with LNCaP and in the data set with Lu1 was more than 5 µg/mL throughout. Besides, the CC50 in data set [1] is more than 5 µg/mL.

Regarding `COc1ccc([C@]23Oc4cc5c(c(OC)c4[C@](O)([C@H](C(=O)N4CCCC4NC(=O)CC(C)C)[C@H]2c2ccccc2)[C@@H]3OC(C)=O)OCO5)cc1` (stereo not given in full), the EC50 in the data set on MCF7, in the data set with LNCaP and in the data set with Lu1 was more than 5 µg/mL throughout. The CC50 in data set [1] was more than 5 µg/mL.

Take `COc1ccc([C@@]23Oc4cc5c(c(OC)c4[C@]2(O)[C@H](OC(C)=O)[C@H](C(=O)N(C)C)[C@H]3c2ccccc2)OCO5)cc1`: the T/C with P388 was found to be 110%. The results for the EC50 with MCF7, in the data set on LNCaP and with Lu1 were 0.02 µg/mL (≈ 0.0356 µM), 0.01 µg/mL (≈ 0.0178 µM) and 0.001 µg/mL (≈ 0.00178 µM), respectively. The CC50 in data set [1] was determined as 0.5 µg/mL (≈ 0.89 µM).

For `COc1ccc(-c2oc3cc(OC)c(OC)c(O)c3c(=O)c2OC)cc1`, the EC50 with MCF7, in the data set on LNCaP and in the data set on Lu1 was more than 5 µg/mL throughout. In addition, the CC50 in data set [1] is more than 5 µg/mL.

On to `C[S+]([O-])/C=C/C(=O)NC1CCCN1C(=O)/C=C/c1ccccc1` (stereo not given) [AGLAMIDE B], for which the EC50 in the data set on MCF7, in the data set with LNCaP and with Lu1 was more than 5 µg/mL in each case. The CC50 in data set [1] is more than 5 µg/mL.

For `COc1ccc([C@]23Oc4cc5c(c(OC)c4[C@](O)([C@H](C(=O)N4CCCC4NC(=O)C=C(C)C)[C@H]2c2ccccc2)[C@@H]3O)OCO5)cc1` (stereo not given in full) [19,20-DEHYDROEDULIRIN A], the EC50 with MCF7, with LNCaP and with Lu1 was more than 5 µg/mL in each case. In addition, the CC50 in data set [1] was more than 5 µg/mL.

On to `COc1ccc([C@]23Oc4cc5c(c(OC)c4[C@](O)([C@@H](c4ccccc4)[C@@H]2C(=O)N2CCCC2NC(=O)CC(C)C)[C@@H]3O)OCO5)cc1` (stereo not given in full) [ISOEDULIRIN A], for which the EC50 with MCF7, in the data set with LNCaP and with Lu1 was more than 5 µg/mL throughout. Besides, the CC50 in data set [1] is more than 5 µg/mL.

Consider `COc1ccc(C2C(=O)Oc3cc4c(c(OC)c32)OCO4)cc1` (stereo not given) [AGLALACTONE], for which the EC50 in the data set with MCF7, in the data set with LNCaP and in the data set on Lu1 was more than 5 µg/mL in each case. The CC50 in data set [1] was more than 5 µg/mL.
